Reference: paper PMC7915026, “Sulfaguanidine Hybrid with Some New Pyridine-2-One Derivatives: Design, Synthesis, and Antimicrobial Activity against Multidrug-Resistant Bacteria as Dual DNA Gyrase and DHFR Inhibitors” (Antibiotics, 2021)
In brackets after ≈: the same amount, converted by molar mass.

What was measured:
[1] = tested on: F. oxysporum (RCMB 008002); experiment: MIC and MFC determination; format: cell-based
[2] = tested on: E. faecalis ATCC 29212; experiment: MIC and MBC determination; format: cell-based; details: Enterococcus faecalis, ATCC29212, E. faecalis
[3] = tested on: P. aeruginosa ATCC BAA-2111; experiment: MIC and MBC against multidrug-resistant strains; format: cell-based; details: Pseudomonas aeruginosa, ATCCBAA2111
Description: (§1) Norfloxacin was used as a positive control for the multidrug resistance study.
(§2) The experiment was repeating for three-times.

[4] = tested on: S. aureus ATCC 33591; experiment: MIC and MBC against multidrug-resistant strains; format: cell-based; details: Staphylococcus aureus, ATCC33591
Description: as §1, §2

[5] = tested on: E. coli ATCC BAA-196; experiment: MIC and MBC against multidrug-resistant strains; format: cell-based; details: Escherichia coli, ATCCBAA196
Description: as §1, §2

[6] = tested on: S. aureus ATCC 43300; experiment: MIC and MBC against multidrug-resistant strains; format: cell-based; details: Staphylococcus aureus, ATCC43300
Description: as §1, §2

[7] = tested on: B. subtilis ATCC 6633; experiment: MIC and MBC determination; format: cell-based; details: Bacillus subtilis, ATCC6633, B. subtilis
[8] = tested on: P. aeruginosa ATCC BAA-2111; experiment: Inhibition zone against multidrug-resistant bacteria; format: cell-based; details: MDRB P. aeruginosa ATCC BAA-2111
Description: as §1
(§3) The antimicrobial activity performed at the bacteriology laboratory, Botany and Microbiology Department, Faculty of Science, Al-Azhar University, Cairo, Egypt. The inhibition zone (IZ) of the tested derivatives expressed as the diameter (mm) according to the agar plate diffusion method.

[9] = tested on: S. aureus ATCC 33591; experiment: as above; format: cell-based; details: MDRB S. aureus ATCC 33591
Description: as §1, §3

[10] = tested on: E. coli ATCC BAA-196; experiment: as above; format: cell-based; details: MDRB E. coli ATCC BAA-196
Description: as §1, §3

[11] = tested on: S. aureus ATCC 43300; experiment: as above; format: cell-based; details: MDRB S. aureus ATCC 43300
Description: as §1, §3

[12] = tested on: neutrophils; experiment: In vitro intracellular killing, nitro blue tetrazolium (NBT) reduction assay; format: cell-based
Experimental: One of the broad methods used for determining immune disorders for patients in hospitals is the NBT test to measure their immune responses. The reduction in NBT dye provides information about the phagocytic and intracellular killing functions of neutrophils, which are important for microbiocidal activity. The most promising derivatives (2a, 2b, 2d, 3a, 8, and 11) were evaluated against in vitro intracellular killing activities using a nitro blue tetrazolium (NBT) reduction assay and the obtained results expressed in percentage (%): increasing the percentage led to an improvement in the killing ability of the neutrophils used as innate immunity.
In vitro intracellular killing activities for the most promising six derivatives 2a, 2b, 2d, 3a, 8, and 11 were performed according to reported methods.

[13] = tested on: S. aureus ATCC 29213; experiment: MIC and MBC determination; format: cell-based; details: Staphylococcus aureus, ATCC29213, S. aureus
[14] = tested on: E. coli ATCC 25922; experiment: MIC and MBC determination; format: cell-based; details: Escherichia coli, ATCC25922, E. coli
[15] = tested on: S. typhi ATCC 6539; experiment: Inhibition zone, paper disk/agar diffusion; format: cell-based; details: S. typhi; Na = no activity
Procedure, shortened: (§4)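 Norfloxacin was included as a positive control. Compounds diffused into seeded agar, and zones of inhibition were recorded as diameter (mm).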

[16] = tested on: F. oxysporum (RCMB 008002); experiment: Inhibition zone, paper disk/agar diffusion; format: cell-based; details: Na = no activity
Procedure, shortened: as §4

[17] = tested on: E. coli ATCC 25922; experiment: Inhibition zone, paper disk/agar diffusion; format: cell-based; details: E. coli; Na = no activity
Procedure, shortened: as §4

[18] = tested on: S. aureus ATCC 29213; experiment: Inhibition zone, paper disk/agar diffusion; format: cell-based; details: S. aureus; Na = no activity
Procedure, shortened: as §4

[19] = tested on: C. albicans (ATCC 10231); experiment: Inhibition zone, paper disk/agar diffusion; format: cell-based; details: Na = no activity
Procedure, shortened: as §4

[20] = tested on: E. faecalis ATCC 29212; experiment: Inhibition zone, paper disk/agar diffusion; format: cell-based; details: E. faecalis; Na = no activity
Procedure, shortened: as §4

[21] = tested on: Salmonella typhi (S. typhi ATCC 6539); experiment: microbe, parasite or virus in culture; format: cell-based; details: Salmonella enterica, Salmonella typhi
[22] = tested on: P. aeruginosa ATCC 27853; experiment: MIC and MBC determination; format: cell-based; details: Pseudomonas aeruginosa, ATCC27853, P. aeruginosa
[23] = target: E. coli DHFR (dihydrofolate reductase) (Escherichia coli, UniProt P0ABQ4); experiment: In vitro DHFR enzymatic assay; format: biochemical
[24] = target: S. aureus DNA gyrase (Staphylococcus aureus, UniProt P0A0K8+P20831); experiment: In vitro DNA gyrase supercoiling enzymatic assay; format: biochemical
[25] = tested on: C. albicans (ATCC 10231); experiment: MIC and MFC determination; format: cell-based

Chain of S. aureus DNA gyrase (P20831 whole entry): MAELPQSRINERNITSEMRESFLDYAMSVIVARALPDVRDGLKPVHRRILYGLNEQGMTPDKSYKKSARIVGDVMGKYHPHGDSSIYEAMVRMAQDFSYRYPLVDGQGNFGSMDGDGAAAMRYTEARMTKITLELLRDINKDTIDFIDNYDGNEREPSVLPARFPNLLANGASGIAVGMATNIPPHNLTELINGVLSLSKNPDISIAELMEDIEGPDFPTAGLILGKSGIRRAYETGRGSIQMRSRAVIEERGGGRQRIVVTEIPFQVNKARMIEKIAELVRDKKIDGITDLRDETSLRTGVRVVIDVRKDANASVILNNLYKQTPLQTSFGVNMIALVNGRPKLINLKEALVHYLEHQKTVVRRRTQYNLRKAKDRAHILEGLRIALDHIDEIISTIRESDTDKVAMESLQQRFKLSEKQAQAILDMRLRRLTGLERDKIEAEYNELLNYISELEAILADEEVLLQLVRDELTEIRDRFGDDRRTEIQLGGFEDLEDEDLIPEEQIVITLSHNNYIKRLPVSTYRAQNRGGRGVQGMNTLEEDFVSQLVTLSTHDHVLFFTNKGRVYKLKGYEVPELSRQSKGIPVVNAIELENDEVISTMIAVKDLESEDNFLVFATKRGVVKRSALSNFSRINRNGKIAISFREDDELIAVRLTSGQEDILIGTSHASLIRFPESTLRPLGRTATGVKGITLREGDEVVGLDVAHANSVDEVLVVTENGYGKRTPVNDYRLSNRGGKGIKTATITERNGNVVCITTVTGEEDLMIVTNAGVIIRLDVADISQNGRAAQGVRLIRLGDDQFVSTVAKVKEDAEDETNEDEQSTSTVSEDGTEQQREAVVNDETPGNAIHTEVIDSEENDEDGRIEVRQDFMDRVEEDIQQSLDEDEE
Chain of S. aureus DNA gyrase (P0A0K8 whole entry): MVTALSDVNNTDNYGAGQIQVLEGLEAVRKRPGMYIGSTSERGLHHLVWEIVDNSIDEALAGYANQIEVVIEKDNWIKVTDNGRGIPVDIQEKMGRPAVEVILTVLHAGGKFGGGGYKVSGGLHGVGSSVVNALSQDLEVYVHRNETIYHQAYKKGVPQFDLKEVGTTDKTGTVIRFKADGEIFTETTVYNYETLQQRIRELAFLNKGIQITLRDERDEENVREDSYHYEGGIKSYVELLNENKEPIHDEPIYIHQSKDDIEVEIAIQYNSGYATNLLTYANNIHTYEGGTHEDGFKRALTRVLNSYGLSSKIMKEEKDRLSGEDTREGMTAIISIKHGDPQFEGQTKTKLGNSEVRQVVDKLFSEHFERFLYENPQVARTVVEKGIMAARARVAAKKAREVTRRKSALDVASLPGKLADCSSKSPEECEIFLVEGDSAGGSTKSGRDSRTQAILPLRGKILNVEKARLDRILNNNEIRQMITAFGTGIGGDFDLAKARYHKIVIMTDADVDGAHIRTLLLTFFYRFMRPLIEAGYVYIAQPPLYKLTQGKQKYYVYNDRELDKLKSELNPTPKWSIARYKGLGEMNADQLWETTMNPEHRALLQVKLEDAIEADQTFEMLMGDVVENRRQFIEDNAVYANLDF
Chain of E. coli DHFR (dihydrofolate reductase) (P0ABQ4 whole entry): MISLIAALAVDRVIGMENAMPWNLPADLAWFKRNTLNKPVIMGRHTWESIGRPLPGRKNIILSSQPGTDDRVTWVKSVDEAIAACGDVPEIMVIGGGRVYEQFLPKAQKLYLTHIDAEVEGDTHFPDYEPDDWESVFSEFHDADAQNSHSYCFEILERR

N#CC(=Cc1ccc(Cl)cc1)C(=O)Nc1ccc(S(=O)(=O)NC(=N)N)cc1 [Compound 2a, N-(4-(N-Carbamimidoylsulfamoyl)phenyl)-3-(4-chlorophenyl)-2-cyanoacrylamide]
MFC/MIC [1]: <2
MFC ([1]; Fusarium oxysporum, RCMB008002, read-out: MFC): 217 ± 2.98 µM (≈ 87.5 µg/mL)
MIC ([1]; Fusarium oxysporum, RCMB008002, read-out: MIC): 138 ± 1.69 µM (≈ 55.5 µg/mL)
MBC ([2]; read-out: MBC): 38.7 ± 0.65 µM (≈ 15.6 µg/mL)
MIC ([2]; read-out: MIC): 19.3 ± 0.65 µM (≈ 7.81 µg/mL)
MBC [3]: 21.3 ± 0.25 µM (≈ 8.61 µg/mL)
MIC [3]: 12.9 ± 0.65 µM (≈ 5.2 µg/mL)
MBC [4]: 8.19 ± 0.26 µM (≈ 3.31 µg/mL)
MIC [4]: 4.82 ± 0.24 µM (≈ 1.95 µg/mL)
MBC [5]: 29.4 ± 0.65 µM (≈ 11.9 µg/mL)
MIC [5]: 15.5 ± 0.26 µM (≈ 6.25 µg/mL)
MBC [6]: 22 ± 0.65 µM (≈ 8.88 µg/mL)
MIC [6]: 11 ± 0.25 µM (≈ 4.44 µg/mL)
MBC ([7]; read-out: MBC): 45.8 ± 1.65 µM (≈ 18.5 µg/mL)
MIC ([7]; read-out: MIC): 22.9 ± 1.02 µM (≈ 9.25 µg/mL)
Mean Diameter of Inhibition Zone [8]: 24 ± 0.18 mm
Mean Diameter of Inhibition Zone [9]: 25 ± 0.33 mm
Mean Diameter of Inhibition Zone [10]: 23 ± 0.94 mm
Mean Diameter of Inhibition Zone [11]: 23 ± 0.11 mm
Intracellular Killing Activity [12]: 82.8 ± 0.37%
MBC ([13]; read-out: MBC): 132 ± 1.35 µM (≈ 53.1 µg/mL)
MIC ([13]; read-out: MIC): 77.4 ± 2.65 µM (≈ 31.2 µg/mL)
MBC ([14]; read-out: MBC): 90.4 ± 0.98 µM (≈ 36.5 µg/mL)
MIC ([14]; read-out: MIC): 45.8 ± 0.98 µM (≈ 18.5 µg/mL)
Mean Diameter of the Inhibition Zone [15]: 23 ± 0.65 mm
Mean Diameter of the Inhibition Zone [16]: 21 ± 0.16 mm
Mean Diameter of the Inhibition Zone [17]: 26 ± 0.11 mm
Mean Diameter of the Inhibition Zone [18]: 25 ± 0.77 mm
Mean Diameter of the Inhibition Zone [19]: 25 ± 0.33 mm
Mean Diameter of the Inhibition Zone [20]: 23 ± 0.65 mm
MBC ([21]; read-out: MBC): 139 ± 1.63 µM (≈ 56.2 µg/mL)
MIC ([21]; read-out: MIC): 77.4 ± 1.06 µM (≈ 31.2 µg/mL)
MBC ([22]; read-out: MBC): 219.9 ± 1.54 µM (≈ 88.8 µg/mL)
MIC ([22]; read-out: MIC): 137 ± 2.12 µM (≈ 55.5 µg/mL)
IC50 [23]: 5.54 ± 0.33 µM
IC50 [24]: 23.9 ± 1.22 µM
MFC/MIC [25]: <2
MFC ([25]; Candida albicans, ATCC10231, read-out: MFC): 103.1 ± 1.02 µM (≈ 41.6 µg/mL)
MIC ([25]; Candida albicans, ATCC10231, read-out: MIC): 77.4 ± 0.85 µM (≈ 31.2 µg/mL)
